According to patent US20170121315A1, “HETEROBICYCLICALLY SUBSTITUTED 4-OXOBUTANE ACID DERIVATIVES AND USE THEREOF” (priority 2014, published 2017):

biological target: T1, human macrophage elastase (HME/hMMP-12) (Homo sapiens, UniProt P39900); experiment: In vitro HME inhibition test (standard or high-sensitivity); assay type: biochemical; details: in some cases mean values, rounded to two significant figures
T1 construct: purchased R&D Systems 917-MP
Description: The potency of the compounds according to the invention with respect to HME (MMP-12) is determined in an in vitro inhibition test. The HME-mediated amidolytic cleavage of a suitable peptide substrate leads to an increase in fluorescent light therein. The signal intensity of the fluorescent light is directly proportional to the enzyme activity. The active concentration of a test compound at which half the enzyme is inhibited (50% signal intensity of the fluorescent light) is reported as the IC50 value.
In a 384 hole microtiter plate, in a total test volume of 41 μl, the test buffer (0.1 M HEPES pH 7.4, 0.15 M NaCl, 0.03 M CaCl2, 0.004 mM ZnCl2, 0.02 M EDTA, 0.005% Brij®), the enzyme (0.5 nM HME; R&D Systems, 917-MP, autocatalytic activation according to the manufacturer's instructions) and the intramolecularly quenched substrate [5 μM Mca-Pro-Leu-Gly-Leu-Glu-Glu-Ala-Dap(Dnp)-NH2; Bachem, M-2670] are incubated in the absence and presence of the test substance (as a solution in DMSO) at 37° C. for two hours. The fluorescence intensity of the test mixtures is measured (excitation […], emission 393 nm). The IC50 values are ascertained by plotting the fluorescent light intensity against the active ingredient concentration.
In this case, an enzyme concentration ten times lower is used (final concentration, e.g. 0.05 nM) in order to achieve an increased test sensitivity. The incubation period chosen for the test is correspondingly longer (e.g. 16 hours).

T1 sequence (P39900 106-470): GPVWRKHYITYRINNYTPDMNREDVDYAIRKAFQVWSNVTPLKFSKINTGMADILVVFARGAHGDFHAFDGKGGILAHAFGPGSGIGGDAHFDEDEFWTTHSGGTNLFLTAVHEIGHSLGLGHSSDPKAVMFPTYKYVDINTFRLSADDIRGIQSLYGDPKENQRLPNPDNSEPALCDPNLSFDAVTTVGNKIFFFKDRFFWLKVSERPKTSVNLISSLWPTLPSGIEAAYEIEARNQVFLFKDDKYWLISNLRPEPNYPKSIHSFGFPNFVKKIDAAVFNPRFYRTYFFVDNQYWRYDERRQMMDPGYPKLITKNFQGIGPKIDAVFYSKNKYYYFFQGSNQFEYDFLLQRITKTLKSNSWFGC

First: O=C(CC(CCn1nnc2ccccc2c1=O)C(=O)O)c1coc2cc(OCCc3ccccc3)ccc12 (racemic) [Example 110, (+/−)-4-Oxo-2-[2-(4-oxo-1,2,3-benzotriazin-3(4H)-yl)ethyl]-4-[6-(2-phenylethoxy)-1-benzofur-3-yl]butanoic acid]
Second: CCCCCOc1ccc2c(C(=O)CC(CCn3nnc4ccccc4c3=O)C(=O)O)coc2c1 (single isomer, unassigned) [Example 90, 4-Oxo-2-[2-(4-oxo-1,2,3-benzotriazin-3(4H)-yl)ethyl]-4-[6-(pentyloxy)-1-benzofur-3-yl]butanoic acid]
The IC50 of the first is 150-fold lower: 0.54 nM for the first, 81 nM for the second. The first is the more potent here.

`O=C(CC(CCn1nnc2ccccc2c1=O)C(=O)O)c1cc2ccc(OCC(=O)C3CC3)cc2s1` (racemic) [Example 115, (+/−)-4-[6-(2-Cyclopropyl-2-oxoethoxy)-1-benzothiophen-2-yl]-4-oxo-2-[2-(4-oxo-1,2,3-benzotriazin-3(4H)-yl)ethyl]butanoic acid] and `O=C(CC(CCn1nnc2ccccc2c1=O)C(=O)O)c1cc2ccc(OCC3CCC3)cc2s1` (racemic) [Example 121, (+/−)-4-[6-(Cyclobutylmethoxy)-1-benzothiophen-2-yl]-4-oxo-2-[2-(4-oxo-1,2,3-benzotriazin-3(4H)-yl)ethyl]butanoic acid] are the same in IC50: 3.1 nM for the first, 3.1 nM for the second.

`CCCOc1ccc2cc(C(=O)CC(CCn3nnc4ccccc4c3=O)C(=O)O)sc2c1` (racemic) [Example 116, (+/−)-4-Oxo-2-[2-(4-oxo-1,2,3-benzotriazin-3(4H)-yl)ethyl]-4-(6-propoxy-1-benzothiophen-2-yl)butanoic acid] and `CCCCOc1ccc2cc(C(=O)CC(CCn3nnc4ccccc4c3=O)C(=O)O)sc2c1` (racemic) [Example 126, (+/−)-4-(6-Butoxy-1-benzothiophen-2-yl)-4-oxo-2-[2-(4-oxo-1,2,3-benzotriazin-3(4H)-yl)ethyl]butanoic acid] are within 1.5-fold of each other in IC50: 4.2 nM for the first, 2.9 nM for the second.

Compared with `O=C(CC(CCn1nnc2ccccc2c1=O)C(=O)O)c1cc2ccc(OCC3CCCO3)cc2s1` (racemic) [Example 117, (+/−)-4-Oxo-2-[2-(4-oxo-1,2,3-benzotriazin-3(4H)-yl)ethyl]-4-{6-[tetrahydrofuran-2-ylmethoxy]-1-benzothiophen-2-yl}butanoic acid], `O=C(CC(CCn1nnc2ccccc2c1=O)C(=O)O)c1cc2ccc(OCC3CCO3)cc2s1` (racemic) [Example 119, (+/−)-4-{6-[Oxetan-2-ylmethoxy]-1-benzothiophen-2-yl}-4-oxo-2-[2-(4-oxo-1-benzotriazin-3(4H)-yl)ethyl]butanoic acid] is 1.6-fold lower in IC50: 5.9 nM for the first, 3.7 nM for the second. The second is the more potent here.

`O=C(CC(CCn1nnc2ccccc2c1=O)C(=O)O)c1cc2ccc(OCCCC(F)(F)F)cc2s1` (racemic) [Example 120, (+/−)-4-Oxo-2-[2-(4-oxo-1,2,3-benzotriazin-3(4H)-yl)ethyl]-4-[6-(4,4,4-trifluorobutoxy)-1-benzothiophen-2-yl]butanoic acid] and `CCOc1ccc2cc(C(=O)CC(CCn3nnc4ccccc4c3=O)C(=O)O)sc2c1` (racemic) [Example 127, (+/−)-4-(6-Ethoxy-1-benzothiophen-2-yl)-4-oxo-2-[2-(4-oxo-1,2,3-benzotriazin-3(4H)-yl)ethyl]butanoic acid] are within 1.5-fold of each other in IC50: 3.6 nM for the first, 2.8 nM for the second.

Going from `CC(C)CCOc1ccc2cc(C(=O)CC(CCn3nnc4ccccc4c3=O)C(=O)O)sc2c1` (racemic) [Example 122, (+/−)-4-[6-(3-Methylbutoxy)-1-benzothiophen-2-yl]-4-oxo-2-[2-(4-oxo-1,2,3-benzotriazin-3(4H)-yl)ethyl]butanoic acid] to `O=C(CC(CCn1nnc2ccccc2c1=O)C(=O)O)c1cc2ccc(OCc3ccncc3)cc2s1` (racemic) [Example 123, (+/−)-4-Oxo-2-[2-(4-oxo-1,2,3-benzotriazin-3(4H)-yl)ethyl]-4-[6-(pyridin-4-ylmethoxy)-1-benzothiophen-2-yl]butanoic acid], the IC50 falls from 4.5 nM to 2.7 nM (1.7-fold).

First: COc1cccc(C(=O)COc2ccc3cc(C(=O)CC(CCn4nnc5ccccc5c4=O)C(=O)O)sc3c2)c1 (racemic) [Example 124, (+/−)-4-{6-[2-(3-Methoxyphenyl)-2-oxoethoxy]-1-benzothiophen-2-yl}-4-oxo-2-[2-(4-oxo-1,2,3-benzotriazin-3(4H)-yl)ethyl]butanoic acid]
Second: O=C(CC(CCn1nnc2ccccc2c1=O)C(=O)O)c1cc2ccc(OCc3ccc(F)cc3)cc2s1 (racemic) [Example 125, (+/−)-4-{6-[(4-Fluorobenzyl)oxy]-1-benzothiophen-2-yl}-4-oxo-2-[2-(4-oxo-1,2,3-benzotriazin-3(4H)-yl)ethyl]butanoic acid]
The IC50 of the first is 4.2-fold lower: 0.95 nM for the first, 4 nM for the second.

First: O=C(CC(CCn1nnc2ccc(C(F)(F)F)cc2c1=O)C(=O)O)c1cc2ccc(OCC3CC3)cc2s1 (racemic) [Example 128, (+/−)-4-[6-(Cyclopropylmethoxy)-1-benzothiophen-2-yl]-4-oxo-2-{2-[4-oxo-6-(trifluoromethyl)-1,2,3-benzotriazin-3(4H)-yl]ethyl}butanoic acid]
Second: CCCOc1ccc2cc(C(=O)CC(CCn3nnc4ccc(C(F)(F)F)cc4c3=O)C(=O)O)sc2c1 (racemic) [Example 132, (+/−)-4-Oxo-2-{2-[4-oxo-6-(trifluoromethyl)-1,2,3-benzotriazin-3(4H)-yl]ethyl}-4-(6-propoxy-1-benzothiophen-2-yl)butanoic acid]
The IC50 of the first is 2.2-fold higher: 1.1 nM for the first, 0.51 nM for the second. The second is the more potent here.

Going from `COc1ccc2cc(C(=O)CC(CCn3nnc4ccc(C(F)(F)F)cc4c3=O)C(=O)O)sc2c1` (racemic) [Example 131, (+/−)-4-(6-Methoxy-1-benzothiophen-2-yl)-4-oxo-2-{2-[4-oxo-6-(trifluoromethyl)-1,2,3-benzotriazin-3(4H)-yl]ethyl}butanoic acid] to `CCCOc1ccc2cc(C(=O)CC(CCn3nnc4ccccc4c3=O)C(=O)O)oc2c1` (single isomer, unassigned) [Example 59, 4-Oxo-2-[2-(4-oxo-1,2,3-benzotriazin-3(4H)-yl)ethyl]-4-(6-propoxy-1-benzofur-2-yl)butanoic acid], the IC50 rises from 1.2 nM to 980 nM (820-fold). The first is the more potent here.

Going from `NC(=O)c1cccc(COc2ccc3c(C(=O)CC(CCn4nnc5ccccc5c4=O)C(=O)O)noc3c2)c1` (racemic) [Example 139, (+/−)-4-{6-[(3-Carbamoylbenzyl)oxy]-1,2-benzoxazol-3-yl}-4-oxo-2-[2-(4-oxo-1,2,3-benzotriazin-3(4H)-yl)ethyl]butanoic acid] to `O=C(CC(CCn1nnc2ccccc2c1=O)C(=O)O)c1noc2cc(OCc3cccc(Cl)c3)ccc12` (racemic) [Example 146, (+/−)-4-{6-[(3-Chlorobenzyl)oxy]-1,2-benzoxazol-3-yl}-4-oxo-2-[2-(4-oxo-1,2,3-benzotriazin-3(4H)-yl)ethyl]butanoic acid], the IC50 rises from 0.58 nM to 1.1 nM (1.9-fold). The first is the more potent here.

First: O=C(CC(CCn1nnc2ccccc2c1=O)C(=O)O)c1noc2cc(OCCC3CCCCC3)ccc12 (racemic) [Example 141, (+/−)-4-[6-(2-Cyclohexylethoxy)-1,2-benzoxazol-3-yl]-4-oxo-2-[2-(4-oxo-1,2,3-benzotriazin-3(4H)-yl)ethyl]butanoic acid]
Second: O=C(CC(CCn1nnc2ccccc2c1=O)C(=O)O)c1noc2cc(OCCC3CCCC3)ccc12 (racemic) [Example 151, (+/−)-4-[6-(2-Cyclopentylethoxy)-1,2-benzoxazol-3-yl]-4-oxo-2-[2-(4-oxo-1,2,3-benzotriazin-3(4H)-yl)ethyl]butanoic acid]
The IC50 of the first is 2.3-fold lower: 0.12 nM for the first, 0.27 nM for the second.

First: O=C(CC(CCn1nnc2ccccc2c1=O)C(=O)O)c1noc2cc(OCc3ccc(Cl)cc3)ccc12 (racemic) [Example 147, (+/−)-4-{6-[(4-Chlorobenzyl)oxy]-1,2-benzoxazol-3-yl}-4-oxo-2-[2-(4-oxo-1,2,3-benzotriazin-3(4H)-yl)ethyl]butanoic acid]
Second: O=C(CC(CCn1nnc2ccccc2c1=O)C(=O)O)c1coc2cc(OCc3ccc(Cl)c(Cl)c3)ccc12 (single isomer, unassigned) [Example 93, 4-{6-[(3,4-Dichlorobenzyl)oxy]-1-benzofur-3-yl}-4-oxo-2-[2-(4-oxo-1,2,3-benzotriazin-3(4H)-yl)ethyl]butanoic acid]
The IC50 of the first is 57-fold lower: 1.7 nM for the first, 97 nM for the second.

Compared with `O=C(CC(CCn1nnc2ccccc2c1=O)C(=O)O)c1noc2cc(OCCC3CCOCC3)ccc12` (racemic) [Example 149, (+/−)-4-Oxo-2-[2-(4-oxo-1,2,3-benzotriazin-3(4H)-yl)ethyl]-4-{6-[2-(tetrahydro-2H-pyran-4-yl)ethoxy]-1,2-benzoxazol-3-yl}butanoic acid], `O=C(CC(CCn1nnc2ccccc2c1=O)C(=O)O)c1noc2cc(OCC3CCCC3)ccc12` (racemic) [Example 152, (+/−)-4-[6-(Cyclopentylmethoxy)-1,2-benzoxazol-3-yl]-4-oxo-2-[2-(4-oxo-1,2,3-benzotriazin-3(4H)-yl)ethyl]butanoic acid] is 2.4-fold higher in IC50: 0.58 nM for the first, 1.4 nM for the second.

Work on `CCCOc1ccc2cc(C(=O)CC(CCn3nnc4ccccc4c3=O)C(=O)O)oc2c1` (single isomer, unassigned) [Example 60, 4-Oxo-2-[2-(4-oxo-1,2,3-benzotriazin-3(4H)-yl)ethyl]-4-(6-propoxy-1-benzofur-2-yl)butanoic acid] yielded an IC50 of 1.8 nM.
